Data published in paper PMC6272301, “Inhibition of Oxidative Stress and Skin Aging-Related Enzymes by Prenylated Chalcones and Other Flavonoids from Helichrysum teretifolium” (Molecules, 2015).

Tested on: not listed separately
Assay: Automated ORAC assay, peroxyl radical (AAPH; ORAC ROO.)
Conditions: peroxyl radical from AAPH, 37 °C; Trolox equivalents
Protocol: (§1) 3.4.2. Automated Oxygen Radicals Absorbance Capacity (ORAC) Assay
(§2) ORAC was measured according to the method described by Prior [30], with some modifications. […] The copper-initiated prooxidant activity was calculated using [(AreaBlank − AreaSample)/AreaBlank] × 100 and expressed as prooxidant units; one unit equals the prooxidant activity that reduces the area under the fluorescein decay curve by 1% in the ORAC assay.

In order of falling “Automated Oxygen Radical Absorbance Capacity (ORAC μM TE/g) ROO.” value:
1. O=C(O[C@@H]1Cc2c(O)cc(O)cc2O[C@@H]1c1cc(O)c(O)c(O)c1)c1cc(O)c(O)c(O)c1 [EGCG, epigallocatechin gallate, reference compound]  14.970 ± 5.53 μM/g × 10^3
2. COc1ccc(-c2oc3cc(O)cc(O)c3c(=O)c2O)cc1O [Compound 8, 4'-methoxyquercetin]  12.545 ± 5.07 μM/g × 10^3
3. COc1ccc(-c2oc3cc(O)cc(O)c3c(=O)c2O)cc1 [Compound 9, 4'-methoxykaempferol]  10.491 ± 0.97 μM/g × 10^3
4. isoxanthohumol [Compound 2]  3.113 ± 17.59 μM/g × 10^3
5. COc1cc2oc(-c3ccccc3)cc(=O)c2c(O)c1OC [Compound 10, mosloflavone]  2.403 ± 2.50 μM/g × 10^3

Tested on: not listed separately
Assay: Automated ORAC assay, hydroxyl radical (H2O2-Cu2+; ORAC OH.)
Conditions: hydroxyl radical from H2O2 0.3% - Cu2+ 18 µM, 37 °C; Trolox equivalents
Protocol: as §1, §2

In order of rising “Automated Oxygen Radical Absorbance Capacity (ORAC μM TE/g) OH.” value:
1. COc1cc2oc(-c3ccccc3)cc(=O)c2c(O)c1OC [Compound 10, mosloflavone]  2.909 ± 8.41 μM/g × 10^6
2. isoxanthohumol [Compound 2]  2.910 ± 6.00 μM/g × 10^6
3. COc1ccc(-c2oc3cc(O)cc(O)c3c(=O)c2O)cc1 [Compound 9, 4'-methoxykaempferol]  3.675 ± 1.40 μM/g × 10^6
4. O=C(O[C@@H]1Cc2c(O)cc(O)cc2O[C@@H]1c1cc(O)c(O)c(O)c1)c1cc(O)c(O)c(O)c1 [EGCG, epigallocatechin gallate, reference compound]  3.911 ± 4.65 μM/g × 10^6
5. COc1ccc(-c2oc3cc(O)cc(O)c3c(=O)c2O)cc1O [Compound 8, 4'-methoxyquercetin]  6.779 ± 3.40 μM/g × 10^6

Tested on: not listed separately
Assay: Copper-initiated prooxidant activity in the ORAC assay (Cu2+ without H2O2)
Conditions: Cu2+ (CuSO4) 18 µM without H2O2, 37 °C; prooxidant (arbitrary) units
Protocol: as §1, §2

In order of falling “Automated Oxygen Radical Absorbance Capacity (ORAC μM TE/g) Prooxidant” value:
1. COc1ccc(-c2oc3cc(O)cc(O)c3c(=O)c2O)cc1O [Compound 8, 4'-methoxyquercetin]  8.963 ± 2.79 µM/g
2. O=C(O[C@@H]1Cc2c(O)cc(O)cc2O[C@@H]1c1cc(O)c(O)c(O)c1)c1cc(O)c(O)c(O)c1 [EGCG, epigallocatechin gallate, reference compound]  6.483 ± 1.19 µM/g
3. COc1cc2oc(-c3ccccc3)cc(=O)c2c(O)c1OC [Compound 10, mosloflavone]  6.482 ± 1.55 µM/g
4. COc1ccc(-c2oc3cc(O)cc(O)c3c(=O)c2O)cc1 [Compound 9, 4'-methoxykaempferol]  3.790 ± 1.15 µM/g
5. isoxanthohumol [Compound 2]  3.601 ± 2.23 µM/g

Tested on: not listed separately
Assay: Ferric-ion reducing antioxidant power assay (FRAP)
Conditions: ascorbic acid equivalents; absorbance 593 nm
Protocol: 3.4.1. Ferric-Ion Reducing Antioxidant Power Assay (FRAP)
Working FRAP reagent was prepared in accordance to the methods described previously. […] L-Ascorbic acid was used as a standard and the results were expressed as μM ascorbic acid equivalents per […] dry weight (μM AAE/g DW) of the test samples.

In order of falling FRAP:
1. COc1ccc(-c2oc3cc(O)cc(O)c3c(=O)c2O)cc1O [Compound 8, 4'-methoxyquercetin]  3584.17 ± 0.54 μM AAE/g
2. O=C(O[C@@H]1Cc2c(O)cc(O)cc2O[C@@H]1c1cc(O)c(O)c(O)c1)c1cc(O)c(O)c(O)c1 [EGCG, epigallocatechin gallate, reference compound]  3326.45 ± 5.76 μM AAE/g
3. isoxanthohumol [Compound 2]  619.91 ± 1.97 μM AAE/g
4. COc1cc2oc(-c3ccccc3)cc(=O)c2c(O)c1OC [Compound 10, mosloflavone]  544.60 ± 6.98 μM AAE/g
5. COc1ccc(-c2oc3cc(O)cc(O)c3c(=O)c2O)cc1 [Compound 9, 4'-methoxykaempferol]  191.47 ± 1.39 μM AAE/g

Tested on: not listed separately
Assay: Trolox equivalent absorbance capacity (TEAC) assay
Conditions: Trolox equivalents; absorbance 734 nm, 25 °C
Protocol: 3.4.3. Trolox Equivalent Absorbance Capacity (TEAC) Assay
The total antioxidant activity of test samples were measured using previously described methods.

In order of rising TEAC:
1. COc1ccc(-c2oc3cc(O)cc(O)c3c(=O)c2O)cc1 [Compound 9, 4'-methoxykaempferol]  261.30 ± 4.02 μM TE/g
2. COc1cc2oc(-c3ccccc3)cc(=O)c2c(O)c1OC [Compound 10, mosloflavone]  699.66 ± 2.28 μM TE/g
3. COc1ccc(-c2oc3cc(O)cc(O)c3c(=O)c2O)cc1O [Compound 8, 4'-methoxyquercetin]  1009.01 ± 1.98 μM TE/g
4. isoxanthohumol [Compound 2]  4170.66 ± 6.72 μM TE/g
5. O=C(O[C@@H]1Cc2c(O)cc(O)cc2O[C@@H]1c1cc(O)c(O)c(O)c1)c1cc(O)c(O)c(O)c1 [EGCG, epigallocatechin gallate, reference compound]  11545.4 ± 17.28 μM TE/g

Tested on: Fe (II)-induced microsomal lipid peroxidation (rat liver microsomes)
Assay: Inhibition of Fe (II)-induced microsomal lipid peroxidation
Assay type: biochemical
Conditions: TBARS, purified compounds screened at 26.750 μg/mL, extract (HT) at 100 μg/mL
Source text: 3.4.4. Inhibition of Fe (II)-Induced Microsomal Lipid Peroxidation Assay
A modified assay described by Snijman et al. with little modifications.

In order of rising “Inhibitory Activitis (IC50) Lipid Peroxidation” value:
1. O=C(O[C@@H]1Cc2c(O)cc(O)cc2O[C@@H]1c1cc(O)c(O)c(O)c1)c1cc(O)c(O)c(O)c1 [EGCG, epigallocatechin gallate, reference compound]  0.929 µg/mL
2. COc1ccc(-c2oc3cc(O)cc(O)c3c(=O)c2O)cc1O [Compound 8, 4'-methoxyquercetin]  6.449 µg/mL
3. COc1ccc(-c2oc3cc(O)cc(O)c3c(=O)c2O)cc1 [Compound 9, 4'-methoxykaempferol]  10.520 µg/mL
4. COc1cc2oc(-c3ccccc3)cc(=O)c2c(O)c1OC [Compound 10, mosloflavone]  10.720 µg/mL

For isoxanthohumol [Compound 2], the “Inhibitory Activitis (IC50) Lipid Peroxidation” value was over 26.750 µg/mL.

Target: tyrosinase (from mushroom) (Agaricus bisporus, UniProt C7FF04)
Sequence (C7FF04 1-392): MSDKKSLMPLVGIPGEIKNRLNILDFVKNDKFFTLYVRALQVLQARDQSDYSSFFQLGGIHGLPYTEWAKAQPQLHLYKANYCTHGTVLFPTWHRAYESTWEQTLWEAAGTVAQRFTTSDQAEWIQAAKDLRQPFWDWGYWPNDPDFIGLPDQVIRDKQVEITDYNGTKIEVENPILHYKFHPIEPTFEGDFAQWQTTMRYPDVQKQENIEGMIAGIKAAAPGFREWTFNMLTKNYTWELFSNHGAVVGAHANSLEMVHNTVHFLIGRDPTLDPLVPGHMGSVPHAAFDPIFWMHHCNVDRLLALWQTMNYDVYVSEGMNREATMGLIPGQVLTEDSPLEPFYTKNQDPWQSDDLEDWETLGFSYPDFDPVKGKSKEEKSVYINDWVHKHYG
Assay: Tyrosinase enzyme assay
Assay type: biochemical
Conditions: substrate L-Tyrosine; screened at effective concentration of 50 μg/mL
Protocol: (§3) Organic solvents, methanol, acetonitrile (HPLC grade), ethanol, ethyl acetate, dichloromethane and hexane were supplied by Merck (Cape Town, South Africa). TLC was conducted on normal-phase (Merck) Silica gel 60 PF254 pre-coated aluminum plates. Column chromatography was performed using silica gel 60 H (0.040–0.063 mm particle size, Merck) and Sephadex LH-20 (Sigma-Aldrich, Cape Town, South Africa). NMR spectra were recorded on an Avance 400 MHz NMR spectrometer (Bruker, Rheinstetten, Germany) in deuterated chloroform and acetone, using the solvent signals as internal reference. HRMS analysis was conducted on an Ultimate 3000 LC (Dionex Sunnyvale, CA, USA) coupled to a Bruker QTOF with electrospray ionization (ESI) interface working in the positive ion mode.
Samples were dissolved in DMSO to a stock solution of 1 mg/mL, and further dilutions were then done with 50 mM sodium phosphate buffer (pH 6.5) for all working solutions. […] Incubation commenced for 30 min at room temperature and the enzyme activity was determined by measuring the absorbance at 490 nm.

In the case of isoxanthohumol [Compound 2], the “Inhibitory Activitis (IC50) Tyrosinase” value is reported as over 50 µg/mL.

Target: T1, elastase (from porcine pancreas) (Sus scrofa, UniProt P00772)
T1 construct: purchased Sigma-Aldrich, Inc. (St. Louis, MO, USA); host or cells: porcine pancreas
T1 sequence (P00772 27-266): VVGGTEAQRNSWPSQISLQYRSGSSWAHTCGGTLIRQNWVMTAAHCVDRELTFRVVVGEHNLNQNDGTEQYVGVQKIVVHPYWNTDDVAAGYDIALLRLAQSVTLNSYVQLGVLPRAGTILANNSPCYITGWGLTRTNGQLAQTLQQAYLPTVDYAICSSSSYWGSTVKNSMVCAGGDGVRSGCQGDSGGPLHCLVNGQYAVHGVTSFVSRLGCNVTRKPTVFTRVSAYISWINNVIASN
Assay: Elastase inhibition assay
Assay type: biochemical
Conditions: substrate SANA; 100 μg/mL optimum concentration
Protocol: as §3
3.4.6. Elastase Inhibition Assay
Inhibition of elastase by the test samples was assayed using N-succyl-(Ala)3-nitroanilide (SANA) as the substrate, monitoring the release of p-nitroanilide by the method described by Chompo et al. with little adjustment. The inhibitory activity determined the intensity of colour released during cleavage of SANA by the action of elastase. Briefly, 1 mM SANA was prepared in 0.1 M Tris-HCl buffer pH 8.0 and 200 µL of this solution was added to the 20 µL of sample solution in a 96-Well plate. The mixtures were vortexed and preincubated for 10 min at 25 °C and then 20 µL of elastase from porcine pancrease (0.03 units/mL) was added. The mixtures were further incubated for 10 min and the absorbance was measured at 410 nm. Methanol was used as control, while oleanolic acid used as a positive control.

With isoxanthohumol [Compound 2] the “Inhibitory Activitis (IC50) Elastase” value was over 100 µg/mL.

Same assay, conditions: substrate SANA; 100 μg/mL optimum concentration; read-out: Inhibitory Activitis (IC50) Elastase (converted)

Compared with `COc1ccc(-c2oc3cc(O)cc(O)c3c(=O)c2O)cc1O` [Compound 8, 4'-methoxyquercetin], `COc1ccc(-c2oc3cc(O)cc(O)c3c(=O)c2O)cc1` [Compound 9, 4'-methoxykaempferol] is higher in IC50: 274 µM for the first, over 333 µM for the second.

Compound `COc1cc2oc(-c3ccccc3)cc(=O)c2c(O)c1OC` [Compound 10, mosloflavone] has an IC50 of over 335 µM.
